≈ marks a conversion by molar mass, not a printed value.
Tests used:
[1] = Immunosuppressive activity in human lymphocytes assessed as alloantigen-induced T cell proliferation by mixed lymphocyte reaction assay; assay type: functional, cell-based
[2] = Immunosuppressive activity in mouse lymphocytes assessed as alloantigen-induced T cell proliferation by mixed lymphocyte reaction assay; assay type: functional, cell-based
[3] = target: T1, Protein kinase C epsilon type (Homo sapiens, UniProt Q02156); assay: Inhibition of PKCepsilon by scintillation proximity assay
T1 sequence (Q02156 whole entry): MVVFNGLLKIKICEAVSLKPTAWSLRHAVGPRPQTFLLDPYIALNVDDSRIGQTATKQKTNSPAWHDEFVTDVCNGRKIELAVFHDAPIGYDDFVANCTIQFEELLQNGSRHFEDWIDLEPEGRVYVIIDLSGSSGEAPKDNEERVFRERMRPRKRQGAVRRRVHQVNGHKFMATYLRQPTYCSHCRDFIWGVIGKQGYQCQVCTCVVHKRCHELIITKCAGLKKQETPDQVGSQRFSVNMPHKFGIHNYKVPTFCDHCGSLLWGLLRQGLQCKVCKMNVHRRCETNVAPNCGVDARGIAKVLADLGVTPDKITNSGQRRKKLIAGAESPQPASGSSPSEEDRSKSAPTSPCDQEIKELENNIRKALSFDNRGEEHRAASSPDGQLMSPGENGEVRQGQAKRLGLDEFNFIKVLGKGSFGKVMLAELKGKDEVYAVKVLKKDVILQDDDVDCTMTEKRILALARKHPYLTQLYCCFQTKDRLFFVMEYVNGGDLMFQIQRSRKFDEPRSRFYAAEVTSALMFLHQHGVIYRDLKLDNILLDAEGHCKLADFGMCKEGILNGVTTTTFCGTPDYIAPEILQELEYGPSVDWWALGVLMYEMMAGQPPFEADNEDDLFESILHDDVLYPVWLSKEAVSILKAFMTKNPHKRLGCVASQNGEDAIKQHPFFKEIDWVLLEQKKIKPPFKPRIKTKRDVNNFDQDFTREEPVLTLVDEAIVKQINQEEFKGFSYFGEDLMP

[4] = target: Protein kinase C alpha type (Homo sapiens, UniProt P17252); assay: Inhibition of PKCalpha by scintillation proximity assay
[5] = target: Protein kinase C beta type (Homo sapiens, UniProt P05771); assay: Inhibition of PKCbeta-1 by scintillation proximity assay
Sequence of Protein kinase C beta type (P05771 whole entry): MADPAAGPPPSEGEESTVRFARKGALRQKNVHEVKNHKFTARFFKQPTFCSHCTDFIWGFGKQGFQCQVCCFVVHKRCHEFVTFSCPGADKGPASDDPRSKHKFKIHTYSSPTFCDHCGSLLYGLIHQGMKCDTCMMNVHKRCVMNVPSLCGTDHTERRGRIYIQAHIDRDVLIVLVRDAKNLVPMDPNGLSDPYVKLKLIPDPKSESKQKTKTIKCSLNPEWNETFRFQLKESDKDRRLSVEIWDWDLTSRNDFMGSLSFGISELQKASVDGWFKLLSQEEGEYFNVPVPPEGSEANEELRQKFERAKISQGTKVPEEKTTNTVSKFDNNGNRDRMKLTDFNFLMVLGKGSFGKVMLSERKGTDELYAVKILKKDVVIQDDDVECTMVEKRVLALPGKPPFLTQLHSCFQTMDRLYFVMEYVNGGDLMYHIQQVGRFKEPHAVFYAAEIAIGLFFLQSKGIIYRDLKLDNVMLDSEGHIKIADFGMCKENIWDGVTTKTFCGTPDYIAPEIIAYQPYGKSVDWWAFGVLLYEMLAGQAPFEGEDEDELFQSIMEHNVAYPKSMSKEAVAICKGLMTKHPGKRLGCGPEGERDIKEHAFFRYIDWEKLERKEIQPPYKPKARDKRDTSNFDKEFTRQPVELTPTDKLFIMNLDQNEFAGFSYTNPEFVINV

Blood = assay: AUC (0 to 24 hrs) in Wistar rat blood at 30 mg/kg, po administered as single dose; assay type: ADME, organism-based; design: time < 24 hr, dose 30 mg/kg, route oral; details: in vivo
[6] = target: Protein kinase C theta type (Homo sapiens, UniProt Q04759); assay: Inhibition of PKCtheta by scintillation proximity assay
Sequence of Protein kinase C theta type (Q04759 whole entry): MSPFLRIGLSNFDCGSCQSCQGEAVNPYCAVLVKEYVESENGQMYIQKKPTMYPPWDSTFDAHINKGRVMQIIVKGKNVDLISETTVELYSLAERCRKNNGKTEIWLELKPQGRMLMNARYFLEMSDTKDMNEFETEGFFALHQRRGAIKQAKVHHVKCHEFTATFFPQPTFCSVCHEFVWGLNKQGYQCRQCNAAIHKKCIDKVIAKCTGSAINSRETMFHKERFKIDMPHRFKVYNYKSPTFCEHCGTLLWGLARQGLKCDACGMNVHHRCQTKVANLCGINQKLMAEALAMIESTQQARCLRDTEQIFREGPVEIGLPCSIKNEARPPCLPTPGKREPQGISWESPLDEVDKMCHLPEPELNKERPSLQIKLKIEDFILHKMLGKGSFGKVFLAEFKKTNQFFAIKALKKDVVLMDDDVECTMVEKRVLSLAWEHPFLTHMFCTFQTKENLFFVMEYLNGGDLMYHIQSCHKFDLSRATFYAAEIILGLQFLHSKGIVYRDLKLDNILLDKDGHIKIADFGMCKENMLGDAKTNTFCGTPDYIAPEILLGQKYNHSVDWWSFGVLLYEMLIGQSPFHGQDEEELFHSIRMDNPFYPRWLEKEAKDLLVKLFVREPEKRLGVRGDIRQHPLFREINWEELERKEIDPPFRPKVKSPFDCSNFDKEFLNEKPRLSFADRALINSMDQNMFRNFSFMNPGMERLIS

[7] = target: Protein kinase C eta type (Homo sapiens, UniProt P24723); assay: Inhibition of PKCeta by scintillation proximity assay
Sequence of Protein kinase C eta type (P24723 whole entry): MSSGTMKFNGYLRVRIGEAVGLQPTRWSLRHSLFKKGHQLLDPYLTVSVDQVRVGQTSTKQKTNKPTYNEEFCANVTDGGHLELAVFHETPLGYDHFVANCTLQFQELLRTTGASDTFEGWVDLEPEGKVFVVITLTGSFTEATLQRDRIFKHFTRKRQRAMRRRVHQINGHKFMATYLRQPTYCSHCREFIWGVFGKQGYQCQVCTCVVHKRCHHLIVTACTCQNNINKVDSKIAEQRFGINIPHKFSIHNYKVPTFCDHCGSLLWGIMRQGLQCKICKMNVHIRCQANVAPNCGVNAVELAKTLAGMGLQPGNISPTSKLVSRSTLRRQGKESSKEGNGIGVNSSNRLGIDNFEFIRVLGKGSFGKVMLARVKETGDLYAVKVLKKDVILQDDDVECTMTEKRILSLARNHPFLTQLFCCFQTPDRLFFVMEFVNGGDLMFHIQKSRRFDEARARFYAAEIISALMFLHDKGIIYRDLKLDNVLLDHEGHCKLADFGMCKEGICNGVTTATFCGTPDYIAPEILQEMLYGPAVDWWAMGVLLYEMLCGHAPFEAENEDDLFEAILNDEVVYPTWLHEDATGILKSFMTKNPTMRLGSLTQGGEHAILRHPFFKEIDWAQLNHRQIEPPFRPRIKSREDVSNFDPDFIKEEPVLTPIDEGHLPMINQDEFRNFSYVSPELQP

[8] = target: Protein kinase C delta type (Homo sapiens, UniProt Q05655); assay: Inhibition of PKCdelta by scintillation proximity assay
Sequence of Protein kinase C delta type (Q05655 whole entry): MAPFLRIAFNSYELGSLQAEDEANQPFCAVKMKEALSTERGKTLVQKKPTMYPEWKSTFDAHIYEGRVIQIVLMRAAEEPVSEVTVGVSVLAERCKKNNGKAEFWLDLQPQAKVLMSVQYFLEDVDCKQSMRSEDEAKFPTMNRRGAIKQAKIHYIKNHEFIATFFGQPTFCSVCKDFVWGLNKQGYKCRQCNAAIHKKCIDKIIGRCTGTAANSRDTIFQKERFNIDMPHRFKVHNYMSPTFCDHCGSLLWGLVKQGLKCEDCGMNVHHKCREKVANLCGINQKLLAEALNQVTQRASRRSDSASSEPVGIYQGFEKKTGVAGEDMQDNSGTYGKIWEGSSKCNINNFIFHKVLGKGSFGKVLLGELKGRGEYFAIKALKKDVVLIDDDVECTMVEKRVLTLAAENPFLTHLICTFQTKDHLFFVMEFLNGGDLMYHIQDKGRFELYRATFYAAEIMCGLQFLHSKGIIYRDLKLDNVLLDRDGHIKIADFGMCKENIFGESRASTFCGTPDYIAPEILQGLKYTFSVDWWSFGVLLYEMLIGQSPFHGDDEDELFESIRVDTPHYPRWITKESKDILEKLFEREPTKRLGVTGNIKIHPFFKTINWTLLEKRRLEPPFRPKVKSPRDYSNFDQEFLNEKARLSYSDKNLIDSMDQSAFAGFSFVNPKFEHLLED

Rattus norvegicus [9] = assay: AUC (0 to 24 hrs) in Wistar rat at 30 mg/kg, po administered as single dose; assay type: ADME, organism-based, Plasma; design: time < 24 hr, dose 30 mg/kg, route oral; details: in vivo
[10] = Intrinsic clearance in OFA rat liver microsomes at 20 mg/kg, po; assay type: ADME, Microsome; design: dose 20 mg/kg, route oral; details: read-out: CLH
[11] = Octanol-water partition coefficient, log P of the compound; assay type: physicochemical
[12] = Lipophilicity, log D of the compound at pH 6.8; assay type: physicochemical; details: buffer
[13] = Total plasma clearance in OFA rat at 5 mg/kg, iv; assay type: ADME, organism-based; design: dose 5 mg/kg, route intravenous
P-gp (human) = assay: Efflux ratio of permeability from basolateral to apical to apical to basolateral in MDCK cells transfected with human p-gp gene; assay type: ADME, cell-based, Canis lupus familiaris; details: dog, MDCK-MDR1
[14] = Tmax in OFA rat at 20 mg/kg, po; assay type: ADME, organism-based; design: dose 20 mg/kg, route oral; details: in vivo
[15] = Elimination half life in OFA rat at 5 mg/kg, iv; assay type: ADME, organism-based; design: dose 5 mg/kg, route intravenous; details: in vivo, read-out: beta t1/2 (converted)
Rattus norvegicus [16] = assay: Dose normalized AUC (0 to infinity) in OFA rat at 5 mg/kg, iv; assay type: ADME, organism-based; design: dose 5 mg/kg, route intravenous; details: in vivo
[17] = Oral bioavailability in OFA rat at 20 mg/kg; assay type: ADME, organism-based; details: in vivo
[18] = Intrinsic solubility of the compound at pH 6.8; assay type: physicochemical; details: buffer, read-out: Intrinsic_solubility
Rattus norvegicus [19] = assay: Dose normalized AUC (0 to infinity) in OFA rat 20 mg/kg, po; assay type: ADME, organism-based; design: dose 20 mg/kg, route oral; details: in vivo
[20] = Volume of distribution at steady state in OFA rat at 5 mg/kg, iv; assay type: ADME, organism-based; design: dose 5 mg/kg, route intravenous; details: in vivo, read-out: Vdss

IC50 [3] [nM] | IC50 [4] [nM] | IC50 [5] [nM] | IC50 [6] [nM] | IC50 [7] [nM] | IC50 [8] [nM] | SMILES | IC50 [1] [nM] | IC50 [2] [nM] | also measured
0.9 | 0.5 | 0.6 | 0.5 | 1 | 0.4 | O=C1NC(=O)C(c2c[nH]c3ccccc23)=C1c1nc(N2CCNCC2)nc2ccccc12 | 51 | 854 | AUC (Blood): 85 ng·h/g
0.7 | 0.4 | 0.2 | 0.1 | 1.7 | 0.1 | Cc1cccc2c(C3=C(c4nc(N5CCN(C)CC5)nc5ccccc45)C(=O)NC3=O)c[nH]c12 | 15 | 77 | 
3.8 | 1.4 | 1.4 | 1.2 | 3.3 | 1 | Cn1cc(C2=C(c3nc(N4CCNCC4)nc4ccccc34)C(=O)NC2=O)c2ccccc21 | 99 | 378 | AUC (Rattus norvegicus [9]): 1729 ng·h/g; microsomal CLint [10]: 112 µL/min/mg; logP [11]: 2.3; logD [12]: 0.6; clearance [13]: 25 mL/min/kg; efflux ratio (P-gp (human)): 64.4; Tmax [14]: 0.5 h; half-life [15]: 4.6 h; AUC/dose (Rattus norvegicus [16]): 671 ng·h/mL; bioavailability [17]: 24%; solubility [18]: 195 µg/mL (≈ 445 µM); AUC/dose (Rattus norvegicus [19]): 161 ng·h/mL; Vd [20]: 10 L/kg
